According to patent US10308644B2, “Heterocyclic compounds as immunomodulators” (Incyte Corporation, priority 2016, dated 2019):

Molecular target: PD-1/PD-L1 (Homo sapiens (Human), UniProt Q9NZQ7)
Experiment: PD-1/PD-L1 Homogeneous Time-Resolved Fluorescence (HTRF) Binding Assay
Conditions: recombinant human PD-1 (3 nM) and PD-L1 (10 nM), 25° C., PBS pH 7.4
In short: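 Fc-tagged human PD-1 (25-167, 3 nM) and His-tagged PD-L1 (19-238, 10 nM) preincubated with inhibitor 40 min in PBS pH 7.4, 0.05% Tween-20, 0.1% BSA, 1% DMSO, 25 °C. Binding detected by HTRF (Eu anti-IgG/APC anti-His, 665/620 nm) after 60 min; IC50 from percent control activity.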

PD-1/PD-L1, sequence (Q9NZQ7 19-238): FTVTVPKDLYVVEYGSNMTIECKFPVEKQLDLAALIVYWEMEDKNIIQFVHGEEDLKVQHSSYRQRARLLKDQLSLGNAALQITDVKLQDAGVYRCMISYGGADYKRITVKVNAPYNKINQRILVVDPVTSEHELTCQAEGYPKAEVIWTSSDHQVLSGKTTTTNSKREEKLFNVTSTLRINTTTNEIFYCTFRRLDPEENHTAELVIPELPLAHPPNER

| IC50 [µM] | SMILES |
| --- | --- |
| ≤ 0.01 | Cc1c(-c2nc3cc(CN4CC5(CC(C(=O)O)C5)C4)cc(C#N)c3o2)cccc1-c1cccc(-c2nc3c(s2)CN(C(=O)CN2CC[C@H](O)C2)C3)c1C [Example 233, 2-((7-cyano-2-(3′-(5-(2-((S)-3-hydroxypyrrolidin-1-yl)acetyl)-5,6-dihydro-4H-pyrrolo[3,4-d]thiazol-2-yl)-2,2′-dimethylbiphenyl-3-yl)benzo[d]oxazol-5-yl)methyl)-2-azaspiro[3.3]heptane-6-carboxylic acid] |
| ≤ 0.01 | Cc1c(-c2nc3cc(CN4CC5(C(=O)O)CC4C5)cc(C#N)c3o2)cccc1-c1cccc(-c2nc3c(s2)CN(C(=O)CN(C)C)C3)c1C [Example 235, 2-((7-cyano-2-(3′-(5-(2-(dimethylamino)acetyl)-5,6-dihydro-4H-pyrrolo[3,4-d]thiazol-2-yl)-2,2′-dimethylbiphenyl-3-yl)benzo[d]oxazol-5-yl)methyl)-2-azabicyclo[2.1.1]hexane-4-carboxylic acid] |
| ≤ 0.01 | CCN(C)CC(=O)N1Cc2nc(-c3cccc(-c4cccc(-c5nc6cc(CN7CC[C@@H](C(=O)O)C7)cc(C#N)c6o5)c4C)c3C)oc2C1 [Example 241, (R)-1-((7-cyano-2-(3′-(5-(N-ethyl-N-methylglycyl)-5,6-dihydro-4H-pyrrolo[3,4-d]oxazol-2-yl)-2,2′-dimethyl-[1,1′-biphenyl]-3-yl)benzo[d]oxazol-5-yl)methyl)pyrrolidine-3-carboxylic acid] |
| ≤ 0.01 | CCN(C)CC(=O)N1Cc2nc(-c3cccc(-c4cccc(-c5nc6cc(CN7CC8(C(=O)O)CC7C8)cc(C#N)c6o5)c4C)c3C)oc2C1 [Example 242, 2-((7-cyano-2-(3′-(5-(N-ethyl-N-methylglycyl)-5,6-dihydro-4H-pyrrolo[3,4-d]oxazol-2-yl)-2,2′-dimethyl-[1,1′-biphenyl]-3-yl)benzo[d]oxazol-5-yl)methyl)-2-azabicyclo[2.1.1]hexane-4-carboxylic acid] |
| ≤ 0.01 | CCN(C)CC(=O)N1Cc2nc(-c3cccc(-c4cccc(-c5nc6cc(CN7CC[C@@](C)(C(=O)O)C7)cc(C#N)c6o5)c4C)c3C)oc2C1 [Example 243, (R)-1-((7-cyano-2-(3′-(5-(N-ethyl-N-methylglycyl)-5,6-dihydro-4H-pyrrolo[3,4-d]oxazol-2-yl)-2,2′-dimethyl-[1,1′-biphenyl]-3-yl)benzo[d]oxazol-5-yl)methyl)-3-methylpyrrolidine-3-carboxylic acid] |
| ≤ 0.01 | Cc1c(-c2nc3c(o2)CN(C(=O)CN(C)C)C3)cccc1-c1cccc(-c2nc3cc(CN4CC[C@@](C)(C(=O)O)C4)cc(C#N)c3o2)c1C [Example 245, (R)-1-((7-cyano-2-(3′-(5-(dimethylglycyl)-5,6-dihydro-4H-pyrrolo[3,4-d]oxazol-2-yl)-2,2′-dimethyl[1,1′-biphenyl]-3-yl)benzo[d]oxazol-5-yl)methyl)-3-methylpyrrolidine-3-carboxylic acid] |
| ≤ 0.01 | Cc1c(-c2nc3c(o2)CN(C(=O)CN(C)C(C)C)C3)cccc1-c1cccc(-c2nc3cc(CN4CC[C@@](C)(C(=O)O)C4)cc(C#N)c3o2)c1C [Example 248, (R)-1-((7-cyano-2-(3′-(5-(N-isopropyl-N-methylglycyl)-5,6-dihydro-4H-pyrrolo[3,4-d]oxazol-2-yl)-2,2'-dimethyl-[1,1′-biphenyl]-3-yl)benzo[d]oxazol-5-yl)methyl)-3-methylpyrrolidine-3-carboxylic acid] |
| ≤ 0.01 | Cc1c(-c2nc3c(o2)CN(C(=O)CN2CCC(O)CC2)C3)cccc1-c1cccc(-c2nc3cc(CN4CC[C@@](C)(C(=O)O)C4)cc(C#N)c3o2)c1C [Example 249, (R)-1-((7-cyano-2-(3′-(5-(2-(4-hydroxypiperidin-1-yl)acetyl)-5,6-dihydro-4H-pyrrolo[3,4-d]oxazol-2-yl)-2,2′-dimethyl-[1,1′-biphenyl]-3-yl)benzo[d]oxazol-5-yl)methyl)-3-methylpyrrolidine-3-carboxylic acid] |

Second part, the compound before the results:

| SMILES | IC50 [µM] |
| --- | --- |
| Cc1c(-c2nc3cc(CN4CC5(CC(C(=O)O)C5)C4)cc(C#N)c3o2)cccc1-c1cccc(-c2nc3c(s2)CN(C(=O)CN(C)[C@@H](C)CO)C3)c1C [Example 232, 2-((7-cyano-2-(3′-(5-(2-(((S)-1-hydroxypropan-2-yl)(methyl)amino)acetyl)-5,6-dihydro-4H-pyrrolo[3,4-d]thiazol-2-yl)-2,2′-dimethylbiphenyl-3-yl)benzo[d]oxazol-5-yl)methyl)-2-azaspiro[3.3]heptane-6-carboxylic acid] | ≤ 0.01 |
| Cc1c(-c2nc3cc(CN4CC5(CC(C(=O)O)C5)C4)cc(C#N)c3o2)cccc1-c1cccc(-c2nc3c(s2)CN(C(=O)CN2CC[C@@H](O)C2)C3)c1C [Example 234, 2-((7-cyano-2-(3′-(5-(2-((R)-3-hydroxypyrrolidin-1-yl)acetyl)-5,6-dihydro-4H-pyrrolo[3,4-d]thiazol-2-yl)-2,2′-dimethylbiphenyl-3-yl)benzo[d]oxazol-5-yl)methyl)-2-azaspiro[3.3]heptane-6-carboxylic acid] | ≤ 0.01 |
| Cc1c(-c2nc3cc(CN4CCC(C(=O)O)CC4)cc(C#N)c3o2)cccc1-c1cccc(-c2nc3c(s2)CN(C(=O)CN(C)C)C3)c1C [Example 236, 1-((7-cyano-2-(3′-(5-(2-(dimethylamino)acetyl)-5,6-dihydro-4H-pyrrolo[3,4-d]thiazol-2-yl)-2,2′-dimethylbiphenyl-3-yl)benzo[d]oxazol-5-yl)methyl)piperidine-4-carboxylic acid] | ≤ 0.01 |
| Cc1c(-c2nc3cc(CN4CC5CC4CC5C(=O)O)cc(C#N)c3o2)cccc1-c1cccc(-c2nc3c(s2)CN(C(=O)CN(C)C)C3)c1C (centres unmarked) [Example 237, 2-((7-cyano-2-(3′-(5-(2-(dimethylamino)acetyl)-5,6-dihydro-4H-pyrrolo[3,4-d]thiazol-2-yl)-2,2′-dimethylbiphenyl-3-yl)benzo[d]oxazol-5-yl)methyl)-2-azabicyclo[2.2.1]heptane-5-carboxylic acid] | ≤ 0.01 |
| Cc1c(-c2nc3cc(CN4CC[C@@H](C(=O)NS(C)(=O)=O)C4)cc(C#N)c3o2)cccc1-c1cccc(-c2nc3c(s2)CN(C(C)C)CC3)c1C [Example 238, (R)-1-((7-cyano-2-(3′-(5-isopropyl-4,5,6,7-tetrahydrothiazolo[5,4-c]pyridin-2-yl)-2,2′-dimethyl-[1,1′-biphenyl]-3-yl)benzo[d]oxazol-5-yl)methyl)-N-(methylsulfonyl)pyrrolidine-3-carboxamide] | ≤ 0.01 |
| Cc1c(-c2nc3cc(CN4CC(C(=O)O)C4)cc(C#N)c3o2)cccc1-c1cccc(-n2cc3c(n2)CN(C(C)C)CC3)c1Cl [Example 239, 1-((2-(2′-chloro-3′-(6-isopropyl-4,5,6,7-tetrahydro-2H-pyrazolo[3,4-c]pyridin-2-yl)-2-methylbiphenyl-3-yl)-7-cyanobenzo[d]oxazol-5-yl)methyl)azetidine-3-carboxylic acid] | ≤ 0.01 |
| Cc1c(-c2nc3cc(CN4CC[C@@H](O)C4)cc(C#N)c3o2)cccc1-c1cccc(NC(=O)c2nc3c(n2C)CCN(Cc2ccc(B(O)O)cc2)C3)c1Cl [Example 240, (R)-4-((2-(2-chloro-3′-(7-cyano-5-((3-hydroxypyrrolidin-1-yl)methyl)benzo[d]oxazol-2-yl)-2′-methylbiphenyl-3-ylcarbamoyl)-1-methyl-6,7-dihydro-1H-imidazo[4,5-c]pyridin-5(4H)-yl)methyl)phenylboronic acid] | ≤ 0.01 |
| CCN(C)CC(=O)N1Cc2nc(-c3cccc(-c4cccc(-c5nc6cc(CN7CCC(C(=O)O)CC7)cc(C#N)c6o5)c4C)c3C)oc2C1 [Example 244, 1-((7-cyano-2-(3′-(5-(N-ethyl-N-methylglycyl)-5,6-dihydro-4H-pyrrolo[3,4-d]oxazol-2-yl)-2,2′-dimethyl-[1,1′-biphenyl]-3-yl)benzo[d]oxazol-5-yl)methyl)piperidine-4-carboxylic acid] | ≤ 0.01 |
| Cc1c(-c2nc3c(o2)CN(C(=O)CN(C)C)C3)cccc1-c1cccc(-c2nc3cc(CN4CCC(C(=O)O)CC4)cc(C#N)c3o2)c1C [Example 246, 1-((7-cyano-2-(3′-(5-(dimethylglycyl)-5,6-dihydro-4H-pyrrolo[3,4-d]oxazol-2-yl)-2,2′-dimethyl-[1,1′-biphenyl]-3-yl)benzo[d]oxazol-5-yl)methyl)piperidine-4-carboxylic acid] | ≤ 0.01 |
| Cc1c(-c2nc3c(o2)CN(C(=O)CN2CC[C@@H](O)C2)C3)cccc1-c1cccc(-c2nc3cc(CN4CC[C@@](C)(C(=O)O)C4)cc(C#N)c3o2)c1C [Example 247, (R)-1-((7-cyano-2-(3′-(5-(2-((R)-3-hydroxypyrrolidin-1-yl)acetyl)-5,6-dihydro-4H-pyrrolo[3,4-d]oxazol-2-yl)-2,2′-dimethyl-[1,1′-biphenyl]-3-yl)-benzo[d]oxazol-5-yl)methyl)-3-methylpyrrolidine-3-carboxylic acid] | ≤ 0.01 |
| Cc1c(-c2nc3c(o2)CN(C(=O)CN2CCC(O)CC2)C3)cccc1-c1cccc(-c2nc3cc(CN4CC[C@@H](C(=O)O)C4)cc(C#N)c3o2)c1C [Example 250, (R)-1-((7-cyano-2-(3′-(5-(2-(4-hydroxypiperidin-1-yl)acetyl)-5,6-dihydro-4H-pyrrolo[3,4-d]oxazol-2-yl)-2,2′-dimethyl-[1,1′-biphenyl]-3-yl)benzo[d]oxazol-5-yl)methyl)pyrrolidine-3-carboxylic acid] | ≤ 0.01 |
| Cc1c(-c2nc3c(o2)CN(C(=O)CN2CCC(O)CC2)C3)cccc1-c1cccc(-c2nc3cc(CN4CC5CC4CC5C(=O)O)cc(C#N)c3o2)c1C (centres unmarked) [Example 251, 2-((7-cyano-2-(3′-(5-(2-(4-hydroxypiperidin-1-yl)acetyl)-5,6-dihydro-4H-pyrrolo[3,4-d]oxazol-2-yl)-2,2′-dimethyl-[1,1′-biphenyl]-3-yl)benzo[d]oxazol-5-yl)methyl)-2-azabicyclo[2.2.1]heptane-5-carboxylic acid] | ≤ 0.01 |
